Results taken from article PMC7380166, “How to Study the Metabolism of New Psychoactive Substances for the Purpose of Toxicological Screenings—A Follow-Up Study Comparing Pooled Human Liver S9, HepaRG Cells, and Zebrafish Larvae” (Frontiers in Chemistry, 2020).

Legend:
[1] = ref Wagmann et al., cited from earlier work; for Detection in pHLS9 [25 µM]: 1P-LSD and metabolites, n = 2, according to literature, 2019b
[2] = after subcutaneous administration of 1P-LSD to rats; ref Halberstadt et al., [2019]; cited from earlier work
[3] = after assumed consumption of a blotter containing 1P-LSD; ref Grumann et al., [2019]; cited from earlier work
HepaRG cells = assay: Incubations with HepaRG cells, metabolite identification by LC-HRMS/MS; assay type: in vitro ADME, human; conditions: 24 h; for Absolute peak area, HepaRG [25 μM]: 25 μM parent NPS; for Absolute peak area, HepaRG [25 μM] / Absolute peak area, HepaRG [250 μM]: cell culture medium, one replicate of n = 3, n.d. = not detected; for Absolute peak area, HepaRG [250 μM]: 250 μM parent NPS
zebrafish larvae [4] = assay: Zebrafish larvae exposure, metabolite identification by LC-HRMS/MS; conditions: 24 h; for Absolute peak area, Zebrafish larvae [100 µM]: 100 µM parent NPS in medium, larvae 4 dpf, larvae extract, one replicate of n = 3, n.d. = not detected
monooxygenases = conditions: initial monooxygenases activity screenings described elsewhere; ref Caspar et al., [2018a]; Wagmann et al., [2019b],[c]; cited from earlier work
zebrafish larvae [5] = assay: In vivo maximum-tolerated concentration (MTC) study in zebrafish larvae; design: species or system zebrafish (Danio rerio); conditions: for Survival rate: 24-h treatment, fifteen larvae
Description: Internal protocols based on published standard methods (Westerfield, [2007]) were used to perform zebrafish husbandry and the maximum-tolerated concentration (MTC) testing was based on a previous study (Richter et al., [2019a]). Danieau's medium [17 mM NaCl, 2 mM KCl, 0.12 mM MgSO4, 1.8 mM Ca(NO3)2, 1.5 mM HEPES, pH 7.1–7.3, and 1.2 μM methylene blue] at 28°C was used to raise zebrafish larvae of the AB wild-type strain. For MTC testing, 96-well plates were used with 100 μl of medium and one larva per well. Drug exposition was started 4 dpf using 0, 0.01, 0.1, 1, 10, 50, or 100 μM final concentrations of 3,4-DMA-NBOMe, ephylone, 4F-MDMB-BINACA, 4F-PHP, or 1P-LSD, respectively. The drug exposure in the incubator at 28°C lasted 24 h. The final DMSO concentration was 1% (v/v) for all experiments. Monitoring of the larvae was done using a LEICA M205 FA stereo microscope (Leica Mikrosysteme Vertrieb GmbH, Wetzlar, Germany) to detect developmental defects and/or decreased survival rates. Fifteen larvae were used for each experiment.

## CCN(CC)C(=O)[C@@H]1C=C2c3cccc4[nH]cc(c34)C[C@H]2N(C)C1 [ML7, LSD]
[1]
  Detection in pHLS9 [25 µM]: +
[2]
  Detection in rat plasma: able to detect
[3]
  Detection in serum and urine samples of an intoxicated patient: able to find
HepaRG cells
  Absolute peak area, HepaRG [25 μM]: 8.59E+08
  Absolute peak area, HepaRG [250 μM]: 5.95E+09
Zebrafish larvae [4]
  Absolute peak area, Zebrafish larvae [100 µM]: 1.25E+09

## CCC(=O)n1cc2c3c(cccc31)C1=C[C@@H](C(=O)N(CC)CC)CN(C)[C@@H]1C2 [Metabolite 1P-LSD, 1-propionyl-d-lysergic acid diethylamide]
monooxygenases
  Monooxygenases involved in metabolism: N-dealkylated and hydroxylated exclusively by CYP3A4
[1]; 25 μM, [2019c]
  Number of phase I metabolites detected, pHLS9 [25 μM]: 8 (Wagmann et al., [2019c])
  Number of phase II metabolites detected, pHLS9 [25 μM]: 0 (Wagmann et al., [2019c])
[1]
  Detection in pHLS9 [25 µM]: +
[2]
  Detection in rat plasma: able to detect
Zebrafish larvae [5]; 0.01 μM, larvae 4 dpf
  Survival rate: 100%
Zebrafish larvae [5]; 0.1 μM, larvae 4 dpf
  Survival rate: 100%
Zebrafish larvae [5]; 1 μM, larvae 4 dpf
  Survival rate: 100%
Zebrafish larvae [5]; 10 μM, larvae 4 dpf
  Survival rate: 100%
Zebrafish larvae [5]; 50 μM, larvae 4 dpf
  Survival rate: 100%
Zebrafish larvae [5]; 100 μM, larvae 4 dpf
  Survival rate: 100%
Zebrafish larvae [5]; 0.01 to 100 μM, larvae 4 dpf, 24 h
  Survival rates for all tested concentrations: 100%
Zebrafish larvae [5]; 24 h exposure via medium
  Concentration considered non-toxic for zebrafish larvae (4 dpf): 100 µM
Zebrafish larvae [5]; up to 100 μM, larvae 4 dpf, 24 h
  Malformations: no malformations
[3]
  Detection in serum and urine samples of an intoxicated patient: could not be detected
HepaRG cells
  Absolute peak area, HepaRG [25 μM]: 3.60E+07
  Absolute peak area, HepaRG [250 μM]: 5.41E+06
HepaRG cells; 25 μM
  Number of phase I metabolites detected, HepaRG [25 μM]: 14
  Number of phase II metabolites detected, HepaRG [25 μM]: 1
HepaRG cells; 250 μM
  Number of phase I metabolites detected, HepaRG [250 μM]: 15
  Number of phase II metabolites detected, HepaRG [250 μM]: 2
Zebrafish larvae [4]; 100 μM in medium
  Number of phase I metabolites detected, Zebrafish larvae: 22
  Number of phase II metabolites detected, Zebrafish larvae: 3
Zebrafish larvae [4]
  Absolute peak area, Zebrafish larvae [100 µM]: 2.92E+09
